In patent publication US20040131581A1, “Novel synergistic antimicrobial compositions and methods” (SureCide Technologies, LLC, priority 2001, published 2004):
Entries after “also recorded” stand apart in the source; their conditions may differ. Where a name gives a salt, the structure may show the parent alone.

What was measured:
[1] = test system: Salmonella choleraesuis (strain 10708); assay: Growth of Salmonella in nutrient broth containing treated rice-hull litter, visual examination; format: cell-based; conditions: for Growth of Salmonella in the Presence of an Iodophore: Example 7, 7 g litter treated 30 minutes, 0.5 g litter, 24 hrs at 37° C.; for Growth of Salmonella upon litter treated with one or more treatment composition components: Example 4, 7 g litter treated, Tables 5A, 5B, 5C; for Growth of Salmonella upon litter treated with various concentrations of treatment composition: Example 6, litter of Example 4 re-tested, 24 hours at 37° C.
Method: . After exposing the litter to the antimicrobial composition, the preparations were filtered and the impregnated litter filtrates were dried and placed in separate culture tubes. Sterile nutrient broth (NB) was added to each tube and appropriate tubes were inoculated with 10^3 cfu/mL of Salmonella. All tubes were incubated overnight and examined visually. Visual interpretation results were confirmed by subculturing all culture tubes to plated media. […]
After soaking, the test preparations were removed from the litter material by vacuum filtration. The wet litter was spread on paper towels and allowed to dry between about 5 hours and overnight, followed by approximately 45 minutes exposure to desiccant.
Each of the treated litter samples was tested in triplicate for the ability to reduce or inhibit growth of an inoculated Salmonella culture. Three aliquots of litter (0.5 g each) from each of the four batches of treated litter (FeCl3/citrate, chitosan, FeCl3/citrate/chitosan, and water) were measured and placed in test tubes, to which 18 mL of microbial nutrient broth (Hardy Diagnostics, Santa Maria Calif.) was added. Control test tubes containing untreated litter (e) and no litter (f) were also prepared.
The tubes containing the treated litter were inoculated with 2 mL of a 10^4 cells/mL stock Salmonella solution (final concentration of 10^3 cells/mL). The inoculated tubes were incubated at 37° C. for 24 hours, then visually examined for positive cell growth. In addition, a sample from each test tube was subcultured onto nutrient and MacConkey agar.

[2] = pH of the litter-containing nutrient broth after incubation; format: physicochemical; conditions: for pH of the growth media after incubation in the presence of litter: Example 4; for pH: Example 6, tube solution after 24 hours at 37° C.
Method: Two extra tubes were used for positive growth (cells only) and negative growth (no cells) growth controls. 18 ml of NB was added to each tube, and […]. The tubes were incubated for 24 hours at 37° C., after which the pH was measured and the number of tubes for each treatment showing signs of bacterial growth were counted.

| Molecule | Growth of Salmonella in the Presence of an Iodophore [1] | Growth of Salmonella upon litter treated with one or more treatment composition components [1] | Growth of Salmonella upon litter treated with one or more treatment composition components ([1]; listed as acetic acid) | pH of the growth media after incubation in the presence of litter [2] | Growth of Salmonella upon litter treated with various concentrations of treatment composition [1] | pH [2] |
| --- | --- | --- | --- | --- | --- | --- |
| povidone-iodine complex [0.1% PIC] | ineffective | – | – | – | – | – |
| CC(=O)O [Acetic Acid] | – | Growth | completely ineffective | ~6 | – | – |
| O=C(O)CC(O)(CC(=O)O)C(=O)O [50 mM citrate] | – | Growth | – | – | Growth | pH 6.4 |
| [Cl][Fe]([Cl])[Cl] [50 mM Fe, FeCl3] | – | Growth | – | – | Growth | pH 6.3 |
| Cl [HCl] | – | completely ineffective; also recorded: Growth | – | ~6 | – | – |
| povidone-iodine complex [.25% PIC] | Growth | – | – | – | – | – |
